Laboratory results from patent publication US11986532B2 (Arvinas Operations, Inc., priority 2021, dated 2024).
Like-named read-outs stand apart in the source and are kept apart here.

Target: T1, BCL6 (Homo sapiens, UniProt P41182)
T1 construct: endogenous in cells; host or cells: T47D breast cancer epithelial cells
Experiment: Immunofluorescence protocol for high content imaging of BCL6 (degradation) in T47D cells, 3 days compound treatment
Format: cell-based
Details: for Dmax: read-out: Mean Dmax (%)** category; for DC50: read-out: Mean DC50 (nM)* category
In short: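 Read-out: high-content imaging of anti-BCL6 immunofluorescence (Alexa-488 secondary) with CellMask and Hoechst counterstains, 10×, 4 fields/well. Cells had 3 days of compound exposure at 37° C, 5% CO2, 11-point 3-fold series from a final top of 0.1 or 1 μM.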

[1] = T47D cells, 3 days compound treatment

CNC(=O)COc1cc2cc(Nc3nc(N4CCC(N5CCC56CN(C5CCN(c7ccc8c(c7)C(=O)N(C7CCC(=O)NC7=O)C8=O)C5)C6)CC4)ncc3Cl)ccc2n(C(C)C)c1=O (centres unmarked) [Compound 221, 2-{[6-({5-chloro-2-[4-(6-{1-[2-(2,6-dioxopiperidin-3-yl)-1,3-dioxo-2,3-dihydro-1H-isoindol-5-yl]pyrrolidin-3-yl}-1,6-diazaspiro[3.3]heptan-1-yl)piperidin-1-yl]pyrimidin-4-yl}amino)-2-oxo-1-(propan-2-yl)-1,2-dihydroquinolin-3-yl]oxy}-N-methylacetamide]
Dmax (T47D): 50 to 70% | DC50: < 10 nM

CNC(=O)COc1cc2cc(Nc3nc(N4CCC(O[C@H]5C[C@H](N6C[C@H](C)N(c7ccc8c(c7)CN(C7CCC(=O)NC7=O)C8=O)[C@@H](C)C6)C5)CC4)ncc3Cl)ccc2n(C(C)C)c1=O (relative stereo) [Compound 180, 2-({6-[(5-chloro-2-{4-[(1r,3r)-3-[(3R*,5R*)-4-[2-(2,6-dioxopiperidin-3-yl)-1-oxo-2,3-dihydro-1H-isoindol-5-yl]-3,5-dimethylpiperazin-1-yl]cyclobutoxy]piperidin-1-yl}pyrimidin-4-yl)amino]-2-ox0-1-(propan-2-yl)-1,2-dihydroquinolin-3-yl}oxy)-N-methylacetamide]
DC50 [1]: < 10 nM | Dmax [1]: ≥ 70%

CNC(=O)COc1cc2cc(Nc3nc(N4CCC(CN5CCC6(CC5)CN(c5ccc7c(c5F)CN(C5CCC(=O)NC5=O)C7=O)C6)CC4)ncc3Cl)ccc2n(C(C)C)c1=O (centres unmarked) [Compound 71, 2-{[6-({5-chloro-2-[4-({2-[2-(2,6-dioxopiperidin-3-yl)-4-fluoro-1-oxo-2,3-dihydro-1H-isoindol-5-yl]-2,7-diazaspiro[3.5]nonan-7-yl}methyl)piperidin-1-yl]pyrimidin-4-yl}amino)-2-oxo-1-(propan-2-yl)-1,2-dihydroquinolin-3-yl]oxy}-N-methylacetamide]
DC50 [1]: < 10 nM | Dmax [1]: 50 to 70%

CNC(=O)COc1cc2cc(Nc3nc(N4CCN(CC5(F)CCN(c6ccc7c(c6)CN(C6CCC(=O)NC6=O)C7=O)CC5)CC4)ncc3Cl)ccc2n(C(C)C)c1=O (centres unmarked) [Compound 113, 2-{[6-({5-chloro-2-[4-({1-[2-(2,6-dioxopiperidin-3-yl)-1-oxo-3H-isoindol-5-yl]-4-fluoropiperidin-4-yl}methyl)piperazin-1-yl]pyrimidin-4-yl}amino)-1-isopropyl-2-oxoquinolin-3-yl]oxy}-N-methylacetamide]
DC50 [1]: < 10 nM | Dmax [1]: 50 to 70%

CNC(=O)COc1cc2cc(Nc3nc(N4CCC(O[C@H]5C[C@H](N6CCN(c7ccc8c(n7)C(C)N(C7CCC(=O)NC7=O)C8=O)[C@H](C)C6)C5)CC4)ncc3Cl)ccc2n(C(C)C)c1=O (stereo in doubt) [Compound 203, 2-({6-[(5-chloro-2-{4-[(1r,3r)-3-[(3R)-4-[6-(2,6-dioxopiperidin-3-yl)-7-methyl-5-oxo-5H,6H, 7H-pyrrolo[3,4-b]pyridin-2-yl]-3-methylpiperazin-1-yl]cyclobutoxy]piperidin-1-yl}pyrimidin-4-yl)amino]-2-oxo-1-(propan-2-yl)-1,2-dihydroquinolin-3-yl}oxy)-N-methylacetamide]
DC50 [1]: < 10 nM | Dmax [1]: ≥ 70%

CNC(=O)COc1cc2cc(Nc3nc(N4CCC(CN5CC[C@]6(CCN(c7ccc8c(c7)CN([C@H]7CCC(=O)NC7=O)C8=O)C6)C5)CC4)ncc3Cl)ccc2n(C(C)C)c1=O [Compound 1, 2-[(6-{[5-chloro-2-(4-{[(5S)-7-{2-[(3S)-2,6-dioxopiperidin-3-yl]-1-oxo-2,3-dihydro-1H-isoindol-5-yl}-2,7-diazaspiro[4.4]nonan-2-yl]methyl}piperidin-1-yl)pyrimidin-4-yl]amino}-2-oxo-1-(propan-2-yl)-1,2-dihydroquinolin-3-yl)oxy]-N-methylacetamide]
DC50 [1]: < 10 nM | Dmax [1]: 50 to 70%

CNC(=O)COc1cc2cc(Nc3nc(N4CCC(O[C@H]5C[C@H](N6CC[C@H](c7ccc8c(c7F)CN([C@H]7CCC(=O)NC7=O)C8=O)C(C)(C)C6)C5)CC4)ncc3Cl)ccc2n(C(C)C)c1=O [Compound 210, 2-({6-[(5-chloro-2-{4-[(1r,3r)-3-[(4S)-4-{2-[(3S)-2,6-dioxopiperidin-3-yl]-4-fluoro-1-oxo-2,3-dihydro-1H-isoindol-5-yl}-3,3-dimethylpiperidin-1-yl]cyclobutoxy]piperidin-1-yl}pyrimidin-4-yl)amino]-2-oxo-1-(propan-2-yl)-1,2-dihydroquinolin-3-yl}oxy)-N-methylacetamide]
DC50 [1]: < 10 nM | Dmax [1]: ≥ 70%

CNC(=O)COc1cc2cc(Nc3nc(N4CCN(C[C@H]5C[C@@H](N6CCC(c7cccc8c7C(=O)N(C7CCC(=O)NC7=O)C8=O)CC6)C5)CC4)ncc3Cl)ccc2n(C(C)C)c1=O (some centres unmarked) [Compound 23, 2-[(6-{[5-chloro-2-(4-{[(1s,3s)-3-{4-[2-(2,6-dioxopiperidin-3-yl)-1,3-dioxo-2,3-dihydro-1H-isoindol-4-yl]piperidin-1-yl}cyclobutyl]methyl}piperazin-1-yl)pyrimidin-4-yl]amino}-2-oxo-1-(propan-2-yl)-1,2-dihydroquinolin-3-yl)oxy]-N-methylacetamide]
DC50 [1]: 50 to 100 nM | Dmax [1]: < 50%

CNC(=O)COc1cc2cc(Nc3nc(N4CCC(O[C@H]5C[C@H](N6CCC7(CN(c8ccc9c(c8)CN(C8CCC(=O)NC8=O)C9=O)C7)C6)C5)CC4)ncc3Cl)ccc2n(C(C)C)c1=O (some centres unmarked) [Compound 344, 2-({6-[(5-chloro-2-{4-[(1r,3r)-3-{2-[2-(2,6-dioxopiperidin-3-yl)-1-oxo-2,3-dihydro-1H-isoindol-5-yl]-2,6-diazaspiro [3.4]octan-6-yl}cyclobutoxy]piperidin-1-yl}pyrimidin-4-yl)amino]-2-oxo-1-(propan-2-yl)-1,2-dihydroquinolin-3-yl}oxy)-N-methylacetamide]
Dmax (T47D): < 50% | DC50: < 10 nM

CNC(=O)COc1cc2cc(Nc3nc(N4CCC(C(C)(C)N5CCC6(CC5)CN(c5cccc7c5C(=O)N(C5CCC(=O)NC5=O)C7=O)C6)CC4)ncc3Cl)ccc2n(C(C)C)c1=O (centres unmarked) [Compound 46, 2-{[6-({5-chloro-2-[4-(2-{2-[2-(2,6-dioxopiperidin-3-yl)-1,3-dioxo-2,3-dihydro-1H-isoindol-4-yl]-2,7-diazaspiro [3.5]nonan-7-yl}propan-2-yl)piperidin-1-yl]pyrimidin-4-yl}amino)-2-oxo-1-(propan-2-yl)-1,2-dihydroquinolin-3-yl]oxy}-N-methylacetamide]
DC50 [1]: < 10 nM | Dmax [1]: ≥ 70%

CNC(=O)COc1cc2cc(Nc3nc(N4CCC(O[C@H]5C[C@H](N6CCN(c7ccc8c(c7Cl)C(=O)N(C7CCC(=O)NC7=O)C8=O)CC6)C5)CC4)ncc3Cl)ccc2n(C(C)C)c1=O (some centres unmarked) [Compound 412, 2-({6-[(5-chloro-2-{4-[(1r,3r)-3-{4-[4-chloro-2-(2,6-dioxopiperidin-3-yl)-1,3-dioxo-2,3-dihydro-1H-isoindol-5-yl]piperazin-1-yl}cyclobutoxy]piperidin-1-yl}pyrimidin-4-yl)amino]-2-oxo-1-(propan-2-yl)-1,2-dihydroquinolin-3-yl}oxy)-N-methylacetamide]
Dmax (T47D): 50 to 70% | DC50: 10 to 50 nM

CNC(=O)COc1cc2cc(Nc3nc(N4CCC(O[C@H]5C[C@H](N6CCC(c7cc(F)c8c(c7OC)CN(C7CCC(=O)NC7=O)C8=O)CC6)C5)CC4)ncc3Cl)ccc2n(C(C)C)c1=O (some centres unmarked) [Compound 128, 2-({6-[(5-chloro-2-{4-[(1r,3r)-3-{4-[2-(2,6-dioxopiperidin-3-yl)-7-fluoro-4-methoxy-1-oxo-2,3-dihydro-1H-isoindol-5-yl]piperidin-1-yl}cyclobutoxy]piperidin-1-yl}pyrimidin-4-yl)amino]-2-oxo-1-(propan-2-yl)-1,2-dihydroquinolin-3-yl}oxy)-N-methylacetamide]
DC50 [1]: < 10 nM | Dmax [1]: 50 to 70%

CNC(=O)COc1cc2cc(Nc3nc(N4CCOC5(CN(CCC6CCN(c7cccc8c7C(=O)N(C7CCC(=O)NC7=O)C8=O)CC6)C5)C4)ncc3Cl)ccc2n(C(C)C)c1=O (centres unmarked) [Compound 144, 2-{[6-({5-chloro-2-[2-(2-{1-[2-(2,6-dioxopiperidin-3-yl)-1,3-dioxo-2,3-dihydro-1H-isoindol-4-yl]piperidin-4-yl}ethyl)-5-oxa-2,8-diazaspiro[3.5]nonan-8-yl]pyrimidin-4-yl}amino)-2-oxo-1-(propan-2-yl)-1,2-dihydroquinolin-3-yl]oxy}-N-methylacetamide]
DC50 [1]: ≥ 100 nM | Dmax [1]: ≥ 70%

CNC(=O)COc1cc2cc(Nc3nc(N4CCC(O[C@H]5C[C@H](N6C[C@@H](C)N(c7ccc8c(c7)C(=O)N(C7CCC(=O)NC7=O)C8=O)[C@@H](C)C6)C5)CC4)ncc3Cl)ccc2n(C(C)C)c1=O (stereo partly drawn) [Compound 244, 2-({6-[(5-chloro-2-{4-[(1r,3r)-3-[(3R,5S)-4-[2-(2,6-dioxopiperidin-3-yl)-1,3-dioxo-2,3-dihydro-1H-isoindol-5-yl]-3,5-dimethylpiperazin-1-yl]cyclobutoxy]piperidin-1-yl}pyrimidin-4-yl)amino]-2-oxo-1-(propan-2-yl)-1,2-dihydroquinolin-3-yl}oxy)-N-methylacetamide]
Mean Dmax (%)** category: A (A >= 70) | DC50: 10 to 50 nM

CNC(=O)COc1cc2cc(Nc3nc(N4CCCCC4)ncc3Cl)ccc2n(CCOc2ccc3c(c2)C(=O)N(C2CCC(=O)N(C)C2=O)C3=O)c1=O (centres unmarked) [Compound 320, 2-[(6-{[5-chloro-2-(piperidin-1-yl)pyrimidin-4-yl]amino}-1-(2-{[2-(1-methyl-2,6-dioxopiperidin-3-yl)-1,3-dioxo-2,3-dihydro-1H-isoindol-5-yl]oxy}ethyl)-2-oxo-1,2-dihydroquinolin-3-yl)oxy]-N-methylacetamide]
DC50: < 10 nM
